# Measurements reported in PubChem BioAssay AID256 (DTP/NCI, 2004).
# “And” between values parts separate entries of the source, which are not always exact repeats. Equal values may be shown once. Inconclusive results and toxic doses are left out.
# Test system: CD2F1 mice, L1210 leukemia ip, survival T/C
# Experiment: NCI In Vivo Anticancer Drug Screen. Data for tumor model L1210 Leukemia (intraperitoneal) in CD2F1 (CDF1) mice
# Conditions: higher = longer survival
# Procedure, shortened: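 Transplantable tumor in mice; compound-treated vs vehicle-treated groups. Read-out = treated/control ratio of the measured endpoint.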
# [1] = endpoint: mean survival time, dose: 100.0 mg/kg/injection, schedule: Q01DX001 (ip), vehicle: saline with Tween-80
# [2] = endpoint: mean survival time, dose: 200.0 mg/kg/injection, schedule: Q01DX001 (ip), vehicle: saline with Tween-80
# [3] = endpoint: mean survival time, dose: 400.0 mg/kg/injection, schedule: Q01DX001 (ip), vehicle: saline with Tween-80
# [4] = endpoint: mean survival time, dose: 100.0 mg/kg/injection, schedule: Q04DX002 (ip), vehicle: saline with Tween-80
# [5] = endpoint: mean survival time, dose: 200.0 mg/kg/injection, schedule: Q04DX002 (ip), vehicle: saline with Tween-80
# [6] = endpoint: mean survival time, dose: 25.0 mg/kg/injection, schedule: Q01DX009 (ip), vehicle: saline with Tween-80
# [7] = endpoint: mean survival time, dose: 50.0 mg/kg/injection, schedule: Q01DX009 (ip), vehicle: saline with Tween-80
# [8] = endpoint: mean survival time, dose: 100.0 mg/kg/injection, schedule: Q01DX009 (ip), vehicle: saline with Tween-80
# [9] = endpoint: mean survival time, dose: 100.0 mg/kg/injection, schedule: Q04DX003 (ip), vehicle: saline with Tween-80
# [10] = endpoint: mean survival time, dose: 200.0 mg/kg/injection, schedule: Q01DX009 (ip), vehicle: saline with Tween-80
# [11] = endpoint: mean survival time, dose: 200.0 mg/kg/injection, schedule: Q04DX003 (ip), vehicle: saline with Tween-80
# [12] = endpoint: mean survival time, dose: 100.0 mg/kg/injection, schedule: Q01DX009 (ip), vehicle: saline
# [13] = endpoint: mean survival time, dose: 200.0 mg/kg/injection, schedule: Q01DX009 (ip), vehicle: saline
# [14] = endpoint: mean survival time, dose: 400.0 mg/kg/injection, schedule: Q04DX003 (ip), vehicle: saline with Tween-80
smiles,measurement,setting,value
Nc1nc(F)nc2c1ncn2C1CC(O)C(CO)O1 (stereo not drawn),T/C,"endpoint: mean survival time, dose: 75.0 mg/kg/injection, schedule: Q01DX001 (ip), vehicle: saline",105 % of control
same,T/C,"endpoint: mean survival time, dose: 100.0 mg/kg/injection, schedule: Q01DX001 (ip), vehicle: other",113 % of control
same,T/C,"endpoint: mean survival time, dose: 150.0 mg/kg/injection, schedule: Q01DX001 (ip), vehicle: saline",109 % of control
same,T/C,"endpoint: mean survival time, dose: 200.0 mg/kg/injection, schedule: Q01DX001 (ip), vehicle: other",110 % of control
same,T/C,"endpoint: mean survival time, dose: 400.0 mg/kg/injection, schedule: Q01DX001 (ip), vehicle: other",107 % of control
same,T/C,"endpoint: median survival time, dose: 25.0 mg/kg/injection, schedule: Q03HX024 (ip), vehicle: saline with Tween-80",219 % of control
same,T/C,"endpoint: median survival time, dose: 30.0 mg/kg/injection, schedule: Q03HX024 (ip), vehicle: saline with Tween-80",234 % of control
same,T/C,"endpoint: median survival time, dose: 30.0 mg/kg/injection, schedule: Q03HX024 (ip), vehicle: saline",211 % of control
same,T/C,"endpoint: median survival time, dose: 35.0 mg/kg/injection, schedule: Q03HX024 (ip), vehicle: saline with Tween-80",250 % of control
same,T/C,"endpoint: median survival time, dose: 40.0 mg/kg/injection, schedule: Q03HX024 (ip), vehicle: saline with Tween-80",158 % of control
same,T/C,"endpoint: median survival time, dose: 40.0 mg/kg/injection, schedule: Q03HX024 (ip), vehicle: saline",227 % of control
CS(=O)(=O)OCCCN(CCCOS(C)(=O)=O)c1ccc(C=Nc2ccc(-c3csc(COc4ccc(Cl)cc4)n3)cc2)cc1,T/C,[1],91 % of control
same,T/C,[2],91 % of control
same,T/C,[3],95 % of control
O=S(=O)(N1CCCCC1)N1CCNCC1,T/C,"endpoint: mean survival time, dose: 5.0 mg/kg/injection, schedule: Q01DX009 (ip), vehicle: saline with Tween-80",98 % of control
same,T/C,"endpoint: mean survival time, dose: 5.0 mg/kg/injection, schedule: Q04DX003 (ip), vehicle: saline with Tween-80",103 % of control
same,T/C,"endpoint: mean survival time, dose: 10.0 mg/kg/injection, schedule: Q01DX009 (ip), vehicle: saline with Tween-80",98 % of control
same,T/C,"endpoint: mean survival time, dose: 10.0 mg/kg/injection, schedule: Q04DX003 (ip), vehicle: saline with Tween-80",103 % of control
same,T/C,"endpoint: mean survival time, dose: 20.0 mg/kg/injection, schedule: Q01DX009 (ip), vehicle: saline with Tween-80",96 % of control
same,T/C,"endpoint: mean survival time, dose: 20.0 mg/kg/injection, schedule: Q04DX003 (ip), vehicle: saline with Tween-80",97 % of control
CCC(=O)Nc1cc([N+](=O)[O-])cc([N+](=O)[O-])c1,T/C,[4],105 % of control
same,T/C,[5],100 % of control
C[N+](C)(C)CC[N+](C)(C)C,T/C,"endpoint: mean survival time, dose: 50.0 mg/kg/injection, schedule: Q04DX003 (ip), vehicle: saline",100 % of control
same,T/C,"endpoint: mean survival time, dose: 100.0 mg/kg/injection, schedule: Q04DX003 (ip), vehicle: saline",103 % of control
same,T/C,"endpoint: mean survival time, dose: 200.0 mg/kg/injection, schedule: Q04DX003 (ip), vehicle: saline",97 % of control
Nc1ncnc2c1ncn2C1OC(COCc2ccccc2)C(OCc2ccccc2)C1OCc1ccccc1 (stereo not drawn),T/C,"endpoint: mean survival time, dose: 20.0 mg/kg/injection, schedule: Q01DX Z (ip), vehicle: saline",90 % of control
same,T/C,"endpoint: mean survival time, dose: 40.0 mg/kg/injection, schedule: Q01DX Z (ip), vehicle: saline",90 % of control
same,T/C,"endpoint: mean survival time, dose: 80.0 mg/kg/injection, schedule: Q01DX Z (ip), vehicle: saline",90 % of control and 93 % of control
same,T/C,"endpoint: mean survival time, dose: 160.0 mg/kg/injection, schedule: Q01DX Z (ip), vehicle: saline",91 % of control and 96 % of control
C1CCC2C[N-]CCC2C1.C1CCC2C[N-]CCC2C1.C1CCC2C[N-]CCC2C1.C1CCC2C[N-]CCC2C1.[Cl][Rh][Cl] (stereo not drawn),T/C,"endpoint: mean survival time, dose: 0.25 mg/kg/injection, schedule: Q01DX009 (ip), vehicle: saline",98 % of control
same,T/C,"endpoint: mean survival time, dose: 0.5 mg/kg/injection, schedule: Q01DX009 (ip), vehicle: saline with Tween-80",92 % of control
same,T/C,"endpoint: mean survival time, dose: 0.5 mg/kg/injection, schedule: Q01DX009 (ip), vehicle: saline",104 % of control
same,T/C,"endpoint: mean survival time, dose: 1.0 mg/kg/injection, schedule: Q01DX009 (ip), vehicle: saline with Tween-80",96 % of control
same,T/C,"endpoint: mean survival time, dose: 1.0 mg/kg/injection, schedule: Q01DX009 (ip), vehicle: saline",104 % of control
same,T/C,"endpoint: mean survival time, dose: 2.0 mg/kg/injection, schedule: Q01DX009 (ip), vehicle: saline with Tween-80",96 % of control
same,T/C,"endpoint: mean survival time, dose: 2.0 mg/kg/injection, schedule: Q01DX009 (ip), vehicle: saline",105 % of control
same,T/C,"endpoint: mean survival time, dose: 4.0 mg/kg/injection, schedule: Q01DX009 (ip), vehicle: saline",113 % of control
same,T/C,"endpoint: mean survival time, dose: 8.0 mg/kg/injection, schedule: Q01DX009 (ip), vehicle: saline",115 % of control
CC(=O)c1cc([N+](=O)[O-])ccc1O,T/C,[6],90 % of control
same,T/C,[7],90 % of control
same,T/C,[8],88 % of control
same,T/C,[9],97 % of control
C/C(CCC(=O)O)=N\NC(N)=O,T/C,[8],97 % of control
same,T/C,[9],95 % of control
same,T/C,[10],97 % of control
same,T/C,[11],90 % of control
same,T/C,"endpoint: mean survival time, dose: 400.0 mg/kg/injection, schedule: Q01DX009 (ip), vehicle: saline with Tween-80",93 % of control
C1CC[N-]CC1.C1CC[N-]CC1.[Cl][Rh]([Cl])[Cl],T/C,"endpoint: mean survival time, dose: 12.5 mg/kg/injection, schedule: Q01DX009 (ip), vehicle: saline with Tween-80",90 % of control
same,T/C,[6],98 % of control
same,T/C,[7],100 % of control
same,T/C,[8],94 % of control
same,T/C,[10],96 % of control
COC(=O)c1n[nH]c(C(C)C)c1N=NN(C)C,T/C,"endpoint: mean survival time, dose: 37.5 mg/kg/injection, schedule: Q01DX009 (ip), vehicle: saline with Tween-80",106 % of control
same,T/C,"endpoint: mean survival time, dose: 75.0 mg/kg/injection, schedule: Q01DX009 (ip), vehicle: saline with Tween-80",121 % of control
same,T/C,"endpoint: mean survival time, dose: 150.0 mg/kg/injection, schedule: Q01DX009 (ip), vehicle: saline with Tween-80",92 % of control
COc1ccc(CCNC(=O)Cc2ccc3c(c2)OCO3)cc1OC,T/C,[1],92 % of control
same,T/C,[4],87 % of control
same,T/C,[2],93 % of control
same,T/C,[5],97 % of control
same,T/C,[3],94 % of control
same,T/C,"endpoint: mean survival time, dose: 400.0 mg/kg/injection, schedule: Q04DX002 (ip), vehicle: saline with Tween-80",93 % of control
C1=NCCN1,T/C,[12],106 % of control
same,T/C,[9],97 % of control
same,T/C,[13],89 % of control
same,T/C,[11],97 % of control
same,T/C,[14],90 % of control
CN1CCSC1=S,T/C,"endpoint: mean survival time, dose: 75.0 mg/kg/injection, schedule: Q01DX001 (ip), vehicle: other",92 % of control
same,T/C,"endpoint: mean survival time, dose: 150.0 mg/kg/injection, schedule: Q01DX001 (ip), vehicle: other",96 % of control
same,T/C,"endpoint: mean survival time, dose: 300.0 mg/kg/injection, schedule: Q01DX001 (ip), vehicle: other",104 % of control
C=C1CCCCC1C(C(=O)O)(c1ccccc1)c1ccccc1 (stereo not drawn),T/C,[9],102 % of control
same,T/C,[11],102 % of control
same,T/C,[14],100 % of control
Cc1nc2[nH]c(=O)[nH]c(=O)c2[nH]1,T/C,[6],94 % of control
same,T/C,[7],96 % of control
same,T/C,[8],92 % of control
NC(CSC(c1ccccc1)(c1ccccc1)c1cccc2ccccc12)C(=O)O (stereo not drawn),T/C,"endpoint: mean survival time, dose: 25.0 mg/kg/injection, schedule: Q01DX009 (ip), vehicle: saline",100 % of control
same,T/C,"endpoint: mean survival time, dose: 50.0 mg/kg/injection, schedule: Q01DX009 (ip), vehicle: saline",100 % of control
same,T/C,[12],110 % of control
same,T/C,[13],102 % of control
NC(=O)c1cn(C2OC(CO)CC2O)c2ncnc(N)c12 (stereo not drawn),T/C,"endpoint: mean survival time, dose: 0.13 mg/kg/injection, schedule: Q01DX009 (ip), vehicle: water",90 % of control
same,T/C,"endpoint: mean survival time, dose: 0.25 mg/kg/injection, schedule: Q01DX009 (ip), vehicle: water",98 % of control
same,T/C,"endpoint: mean survival time, dose: 0.5 mg/kg/injection, schedule: Q01DX009 (ip), vehicle: water",96 % of control
same,T/C,"endpoint: mean survival time, dose: 1.0 mg/kg/injection, schedule: Q01DX009 (ip), vehicle: water",102 % of control
same,T/C,"endpoint: mean survival time, dose: 2.0 mg/kg/injection, schedule: Q01DX009 (ip), vehicle: water",113 % of control
same,T/C,"endpoint: mean survival time, dose: 8.0 mg/kg/injection, schedule: Q01DX009 (ip), vehicle: water",110 % of control
same,T/C,"endpoint: mean survival time, dose: 32.0 mg/kg/injection, schedule: Q01DX009 (ip), vehicle: water",122 % of control
CCC(C)(S)C(NC(C)=O)C(=O)O (stereo not drawn),T/C,[9],98 % of control
same,T/C,[11],101 % of control
same,T/C,[14],104 % of control
CC(=O)Nc1ccc(C(=O)O)cc1,T/C,[9],96 % of control
same,T/C,[11],98 % of control
same,T/C,[14],100 % of control
CC(CCC(=O)O)C1CCC2C3CCC4CCCCC4(C)C3CCC12C (stereo not drawn),T/C,[1],98 % of control
same,T/C,[2],93 % of control
same,T/C,[3],92 % of control
COC(=O)CSC#N,T/C,"endpoint: mean survival time, dose: 10.0 mg/kg/injection, schedule: Q01DX001 (ip), vehicle: saline",111 % of control
same,T/C,"endpoint: mean survival time, dose: 20.0 mg/kg/injection, schedule: Q01DX001 (ip), vehicle: saline",107 % of control
COC(=O)CCN(c1ccccc1)c1ccc(C)cc1,T/C,[9],97 % of control
same,T/C,[11],97 % of control
same,T/C,[14],97 % of control
CSc1ccccc1C(=O)O,T/C,[9],102 % of control and 95 % of control
same,T/C,[11],96 % of control and 101 % of control
same,T/C,[14],102 % of control and 101 % of control
